The source of these data is article PMC7822816, “Halo-fluorescein for photodynamic bacteria inactivation in extremely acidic conditions” (Nature Communications, 2021).

“And” between values parts separate entries of the source, which are not always exact repeats. Identical values can stand only once.

The nature of one data set: pH titration of halogenated fluorescein (pH0.5). Format: physicochemical. The conditions noted are these: 2% DMSO citric acid-disodium hydrogen phosphate buffer (Supplementary Table 4). On the procedure:
The pH0.5 values (the pH value when the open form reduce to the half of the maximum) of various fluorescein derivatives were determined experimentally through pH titration (Supplementary Figs. 6–16).
The pH of the solutions were adjusted through varying the ratios of citric acid and Na2HPO4 (pH 2.2–8.0), and further acidity was adjusted with concentrated HCl or 1 M NaOH. The absorption and fluorescence spectra of the resultant solutions were then collected.
Section S5. pH-dependent Properties of the Halogenated Fluoresceins.
S5.1 pH titration of halogenated fluorescein
Fluorescein derivatives (Supplementary Table 1) were dissolved in DMSO to obtain 1 mM stock solutions and then diluted with citric acid-Na2HPO4 buffer (100 mM) to 10
μM. The pH of the solutions were adjusted through varying the ratios of citric acid and Na2HPO4 (pH 2.2-8.0), and further acidity was adjusted with concentrated HCl or 1 M
NaOH. The absorption and fluorescence spectra of the resultant solutions were then
As to `O=C(O)c1ccccc1-c1c2ccc(=O)c(Br)c-2oc2c(Br)c(O)ccc12` [DBF, Dibromo-fluorescein], the pH0.5 was found to be 4.63.

Molecule `O=C(O)c1ccccc1-c1c2ccc(=O)c(I)c-2oc2c(I)c(O)ccc12` [DIF, Diiodo-fluorescein] came in with a pH0.5 of 4.13.

`O=C(O)c1c(Cl)c(Cl)c(Cl)c(Cl)c1-c1c2cc(Cl)c(=O)c(Cl)c-2oc2c(Cl)c(O)c(Cl)cc12` [OCF, Octachloro-fluorescein] registered a pH0.5 of 3.41.

In turn, `O=C(O)c1c(Cl)c(Cl)c(Cl)c(Cl)c1-c1c2cc(Br)c(=O)c(Br)c-2oc2c(Br)c(O)c(Br)cc12` [PB, Tetrabromo-tetrachloro-fluorescein] registered a pH0.5 of 3.45.

`O=C(O)c1ccccc1-c1c2cc(Cl)c(=O)c(Cl)c-2oc2c(Cl)c(O)c(Cl)cc12` [TCF-1, Tetrachloro-fluorescein-1] gave a pH0.5 of 2.79.

Staying with this data set, now noted: difference to fluorescein (6.09).
On to `O=C(O)c1ccccc1-c1c2cc(Cl)c(=O)c(Cl)c-2oc2c(Cl)c(O)c(Cl)cc12` [TCF-1, Tetrachloro-fluorescein-1], for which the “lowering of pH0.5 compared with fluorescein” value is recorded as 3.30 units.

Still in this data set, the particulars now being: pH value when the open form reduces to half of the maximum; pH titration, 10 μM, citric acid–Na2HPO4 buffer.
Regarding `O=C(O)c1ccccc1-c1c2ccc(=O)c(Br)c-2oc2c(Br)c(O)ccc12` [DBF, Dibromo-fluorescein], the pH0.5 was 4.63 and 4.52.

Consider `O=C(O)c1ccccc1-c1c2ccc(=O)c(I)c-2oc2c(I)c(O)ccc12` [DIF, Diiodo-fluorescein], for which the pH0.5 is on record as 4.13.

In turn, `O=C(O)c1c(Cl)c(Cl)c(Cl)c(Cl)c1-c1c2cc(Cl)c(=O)c(Cl)c-2oc2c(Cl)c(O)c(Cl)cc12` [OCF, Octachloro-fluorescein] displayed a pH0.5 of 3.41.

Take `O=C(O)c1c(Cl)c(Cl)c(Cl)c(Cl)c1-c1c2cc(Br)c(=O)c(Br)c-2oc2c(Br)c(O)c(Br)cc12` [PB, Tetrabromo-tetrachloro-fluorescein]: the pH0.5 is reported as 3.45.

With `O=C(O)c1ccccc1-c1c2cc(Cl)c(=O)c(Cl)c-2oc2c(Cl)c(O)c(Cl)cc12` [TCF-1, Tetrachloro-fluorescein-1], the pH0.5 is given as 2.79.

A further data set is described as follows: Relative singlet oxygen quantum yield (1O2 phosphorescence, Rose Bengal standard). It is filed as physicochemical. Also on record: key: relative to Rose Bengal standard (ΦΔ = 0.75). The note with it: mixed solvent of D2O and CH3CN (1:15) (Supplementary Table 4). The procedure:
To permit the open-form structure of all fluorescein derivatives, all the measurements were carried out in pH = 10 media.
The singlet oxygen quantum yields (ΦΔ) of all fluorescein-based PSs were evaluated with Rose Bengal as the standard (ΦΔ = 0.75):1 ΦΔ=AsAbsorption/As(Emission)×ARB(Emission)/ARB(Absorption)×0.75 Here, the area of absorption (RB and PSs) was collected with an integrating sphere (λex = 510 nm), while the area of emission was obtained from the characterized 1270 nm ^1O2 phosphorescence emission. For collection of such emission, CH3CN and D2O mixed solvent (v (D2O): v (CH3CN) = 1:15, pH = 9.0, adjusted with 0.001 M NaOH) was used, since H2O can severely quench the singlet oxygen luminescence. For all the measurements, the concentrations of the PSs were set at 10 μM.
S6.3 Relative singlet oxygen quantum yield
The singlet O2 quantum yield of photosensitizers were measured by Fluolog-3 spectrofluorometer with an integration sphere (IS80, Labsphere) and NIR detector (Hamamatsu H-10330) in this work.
For better collection of the characterized singlet oxygen phosphorescence emission (1275 nm), CH3CN and D2O mixed solvent was used (H2O can severely quench the singlet oxygen luminescence). The 10 mM stock solutions in CH3CN and D2O mixed solvent (VCH3CN:VD2O = 15:1) were first prepared. The stock solutions were diluted to 10 μM, and the final volume was 2 mL. In addition, the CH3CN and D2O mixed solvent as blank was also prepared.
1. Turn on the instrument and the start software, the light source is xenon lamp.
2. From the experiment menu, selected spectra, emission. The 1O2 emission phosphorescence spectra are first measured.
3. The parameters setting are listed: a. Excitation wavelength: 510 nm
With `O=C(O)c1ccccc1-c1c2ccc(=O)c(Br)c-2oc2c(Br)c(O)ccc12` [DBF, Dibromo-fluorescein], the “Singlet oxygen yield (ΦΔ)” value amounted to 0.26.

Regarding `O=C(O)c1c(Cl)c(Cl)c(Cl)c(Cl)c1-c1c2cc(Cl)c(=O)c(Cl)c-2oc2c(Cl)c(O)c(Cl)cc12` [OCF, Octachloro-fluorescein], the “Singlet oxygen yield (ΦΔ)” value was determined as 0.11.

As for `O=C(O)c1ccccc1-c1c2cc(Cl)c(=O)c(Cl)c-2oc2c(Cl)c(O)c(Cl)cc12` [TCF-1, Tetrachloro-fluorescein-1], the “Singlet oxygen yield (ΦΔ)” value came to 0.06.

Staying with this data set, now noted: pH = 10 media; relative, RB as the standard.
For the molecule `O=C(O)c1ccccc1-c1c2ccc(=O)c(Br)c-2oc2c(Br)c(O)ccc12` [DBF, Dibromo-fluorescein], the “singlet oxygen quantum yield (ΦΔ)” value is on record as 0.19.

On to `O=C(O)c1ccccc1-c1c2ccc(=O)c(I)c-2oc2c(I)c(O)ccc12` [DIF, Diiodo-fluorescein], for which the “singlet oxygen quantum yield (ΦΔ)” value came to 0.63.

For `O=C(O)c1c(Cl)c(Cl)c(Cl)c(Cl)c1-c1c2cc(Cl)c(=O)c(Cl)c-2oc2c(Cl)c(O)c(Cl)cc12` [OCF, Octachloro-fluorescein], the “singlet oxygen quantum yield (ΦΔ)” value is 0.11.

As for `O=C(O)c1c(Cl)c(Cl)c(Cl)c(Cl)c1-c1c2cc(Br)c(=O)c(Br)c-2oc2c(Br)c(O)c(Br)cc12` [PB, Tetrabromo-tetrachloro-fluorescein], the “singlet oxygen quantum yield (ΦΔ)” value came to 0.26.

For `O=C(O)c1ccccc1-c1c2cc(Cl)c(=O)c(Cl)c-2oc2c(Cl)c(O)c(Cl)cc12` [TCF-1, Tetrachloro-fluorescein-1], the “singlet oxygen quantum yield (ΦΔ)” value came out at 0.06.

A further data set can be described thus: Photophysical characterization (absorption, fluorescence, phosphorescence, lifetime). Format: physicochemical.
Settings: not given
The procedure:
Section S6. Photophysical Characterizations
S6.1 Absorption, fluorescence, and phosphorescence spectra
Fluorescein and its derivatives were dissolved in DMSO to obtain 1 mM stock solutions.
The stock solutions were diluted with deionized water to 10 μM.
Supplementary Figure 20. The absorption (black), fluorescence (blue), and phosphorescence (red, slit 25 nm) spectra of FL.
Supplementary Figure 21. The absorption (black), fluorescence (blue), and phosphorescence (red, slit 25 nm) spectra of DCF.
S6.2 Fluorescence lifetime
Fluorescence decay samples was recorded with Fluorolog-3 (Horiba). The solution of samples were prepared to be 5 μM in 0.5% (v/v) DMSO, and diluted with 0.1M NaOH.
S6.5 Photophysical properties of the halogenated-fluorescein derivatives
Supplementary Table 4. Photophysical Properties of Halogenated-fluorescein derivatives. […]
a Measured in 2% DMSO; b Measured in 2% DMSO citric acid -disodium hydrogen phosphate buffer; c Measured in a mixed solvent of D 2O and CH3CN (VD2O:
VCH3CN = 1: 15); d The solution of samples were prepared to be 5 μM in 0.5% (v/v) DMSO, and diluted with 0.1 M NaOH.
The molecule `O=C(O)c1ccccc1-c1c2ccc(=O)c(Br)c-2oc2c(Br)c(O)ccc12` [DBF, Dibromo-fluorescein] gave a kdec of 5.03e+08 s⁻¹, a knr of 3.5e+08 s⁻¹ and a krad of 1.52e+08 s⁻¹.

Turning to `O=C(O)c1ccccc1-c1c2ccc(=O)c(I)c-2oc2c(I)c(O)ccc12` [DIF, Diiodo-fluorescein], the kdec stood at 1e+11 s⁻¹, the knr was 9.99e+10 s⁻¹ and the krad was 1e+08 s⁻¹.

Molecule `O=C(O)c1c(Cl)c(Cl)c(Cl)c(Cl)c1-c1c2cc(Cl)c(=O)c(Cl)c-2oc2c(Cl)c(O)c(Cl)cc12` [OCF, Octachloro-fluorescein] showed a kdec of 2.31e+08 s⁻¹, a knr of 9.3e+07 s⁻¹ and a krad of 1.38e+08 s⁻¹.

`O=C(O)c1c(Cl)c(Cl)c(Cl)c(Cl)c1-c1c2cc(Br)c(=O)c(Br)c-2oc2c(Br)c(O)c(Br)cc12` [PB, Tetrabromo-tetrachloro-fluorescein] gave a kdec of 8e+08 s⁻¹, a knr of 6.64e+08 s⁻¹ and a krad of 1.36e+08 s⁻¹.

As for `O=C(O)c1ccccc1-c1c2cc(Cl)c(=O)c(Cl)c-2oc2c(Cl)c(O)c(Cl)cc12` [TCF-1, Tetrachloro-fluorescein-1], the kdec amounted to 2.44e+08 s⁻¹, the knr was determined as 7.8e+07 s⁻¹ and the krad was found to be 1.66e+08 s⁻¹.

Staying with this data set, now noted: 5 μM in 0.5% (v/v) DMSO, diluted with 0.1 M NaOH.
`O=C(O)c1ccccc1-c1c2ccc(=O)c(Br)c-2oc2c(Br)c(O)ccc12` [DBF, Dibromo-fluorescein]: the ΦFL is on record as 0.303.

On to `O=C(O)c1ccccc1-c1c2ccc(=O)c(I)c-2oc2c(I)c(O)ccc12` [DIF, Diiodo-fluorescein], for which the ΦFL was found to be 0.001.

In the case of `O=C(O)c1c(Cl)c(Cl)c(Cl)c(Cl)c1-c1c2cc(Cl)c(=O)c(Cl)c-2oc2c(Cl)c(O)c(Cl)cc12` [OCF, Octachloro-fluorescein], the ΦFL is 0.597.

Take `O=C(O)c1c(Cl)c(Cl)c(Cl)c(Cl)c1-c1c2cc(Br)c(=O)c(Br)c-2oc2c(Br)c(O)c(Br)cc12` [PB, Tetrabromo-tetrachloro-fluorescein]: the ΦFL worked out at 0.170.

Turning to `O=C(O)c1ccccc1-c1c2cc(Cl)c(=O)c(Cl)c-2oc2c(Cl)c(O)c(Cl)cc12` [TCF-1, Tetrachloro-fluorescein-1], the ΦFL amounted to 0.680.

The data set is the same for the next values; noted with them: 2% DMSO.
`O=C(O)c1ccccc1-c1c2ccc(=O)c(Br)c-2oc2c(Br)c(O)ccc12` [DBF, Dibromo-fluorescein] displayed a λAbs of 504 nm, a λPh of 685 nm and a λem of 531 nm.

The molecule `O=C(O)c1ccccc1-c1c2ccc(=O)c(I)c-2oc2c(I)c(O)ccc12` [DIF, Diiodo-fluorescein] came in with a λAbs of 527 nm, a λPh of 699 nm and a λem of 549 nm.

Consider `O=C(O)c1c(Cl)c(Cl)c(Cl)c(Cl)c1-c1c2cc(Cl)c(=O)c(Cl)c-2oc2c(Cl)c(O)c(Cl)cc12` [OCF, Octachloro-fluorescein], for which the λAbs was 537 nm, the λPh is reported as 676 nm and the λem is on record as 556 nm.

`O=C(O)c1c(Cl)c(Cl)c(Cl)c(Cl)c1-c1c2cc(Br)c(=O)c(Br)c-2oc2c(Br)c(O)c(Br)cc12` [PB, Tetrabromo-tetrachloro-fluorescein]: the λAbs was 539 nm, the λPh turned out to be 730 nm and the λem was determined as 560 nm.

For `O=C(O)c1ccccc1-c1c2cc(Cl)c(=O)c(Cl)c-2oc2c(Cl)c(O)c(Cl)cc12` [TCF-1, Tetrachloro-fluorescein-1], the λAbs is listed as 515 nm, the λPh amounted to 655 nm and the λem is 536 nm.

The data set is the same for the next values; noted with them: fluorescence lifetime; 5 μM in 0.5% DMSO, 0.1 M NaOH.
Molecule `O=C(O)c1ccccc1-c1c2ccc(=O)c(Br)c-2oc2c(Br)c(O)ccc12` [DBF, Dibromo-fluorescein] displayed a τfl of 1.99 ns.

`O=C(O)c1ccccc1-c1c2ccc(=O)c(I)c-2oc2c(I)c(O)ccc12` [DIF, Diiodo-fluorescein]: the τfl is 0.01 ns.

`O=C(O)c1c(Cl)c(Cl)c(Cl)c(Cl)c1-c1c2cc(Cl)c(=O)c(Cl)c-2oc2c(Cl)c(O)c(Cl)cc12` [OCF, Octachloro-fluorescein] displayed a τfl of 4.33 ns.

`O=C(O)c1c(Cl)c(Cl)c(Cl)c(Cl)c1-c1c2cc(Br)c(=O)c(Br)c-2oc2c(Br)c(O)c(Br)cc12` [PB, Tetrabromo-tetrachloro-fluorescein] displayed a τfl of 1.25 ns.

Turning to `O=C(O)c1ccccc1-c1c2cc(Cl)c(=O)c(Cl)c-2oc2c(Cl)c(O)c(Cl)cc12` [TCF-1, Tetrachloro-fluorescein-1], the τfl worked out at 4.09 ns.
